Measurements as given in patent publication US10166218B2, “3-(1H-indol-2-yl)-1H-pyrazolo[3,4-C]pyridines and therapeutic uses thereof” (Samumed, LLC, priority 2015, dated 2019).

Key:
Format in all cases: cell-based
SW480 colon cancer cells = assay: Cell viability assay (CellTiter-Blue) in SW480 colon cancer cells; conditions: Homo sapiens, 96 h, four days; for EC50: CellTiter-Blue; for inhibition at 10 µM: read-out: percent inhibition at 10 μM (given for EC50 of >10 μM)
Procedure, shortened: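 SW480 cells (~2×10^3 per well) were exposed to compound for four days at 37 °C/5% CO2, using 8-point 1:3 dilutions from 10 μM to 0.0045 μM in duplicate. Viability was read by resazurin reduction (CellTiter-Blue, ~3 h, Ex 560/Em 590 nm). EC50 came from non-linear regression; above 10 μM, percent inhibition at 10 μM is given.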

IL-6 (THP-1 cells) = assay: Inhibition of IL-6 in LPS-stimulated THP-1 human monocyte cells (HTRF); conditions: for inhibition at 10 µM: IL-6 assay in LPS-stimulated THP-1 cells, given only where EC50 >10 μM, meaning not given (top concentration 10 μM), read-out: percentage given in parentheses after EC50 >10; for EC50: inhibition of IL-6 in LPS-stimulated THP-1 cells, HTRF, 10-point dose-response starting from 10 μM
Procedure, shortened: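 THP-1 cells, serum-reduced (1% FBS) for 24 h, were preincubated with compound (10-point 1:3 series from 10 μM, 0.1% DMSO) for 2 h, then stimulated with 500 ng/mL LPS for 22 h at 37° C. IL-6 was read by HTRF (665/620 nm ratio) and normalized to DMSO. EC50 from four-parameter fit; % inhibition at 10 μM given if EC50 >10 μM.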

[1] = test system: Wnt activity (Sp5-Luc reporter, TCF/LEF binding sites) in SW480 colon carcinoma cells; assay: Screening assay for Wnt activity: Sp5-Luc reporter gene assay in stably transduced SW480 cells; conditions: Homo sapiens; for inhibition at 10 µM: read-out: percent inhibition at 10 μM (given for EC50 of >10 μM); for EC50: overnight incubation
Procedure, shortened: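 Wnt-driven firefly luciferase in SW480 colon carcinoma cells reports pathway activity after overnight compound exposure (10 μM top concentration, 3-fold steps). Signal is normalized to DMSO controls.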

Structure (SMILES) | EC50 (SW480 colon cancer cells) [nM] | EC50 (IL-6 (THP-1 cells)) [nM] | EC50 [1] [nM] | inhibition at 10 µM (IL-6 (THP-1 cells)) [%] | inhibition at 10 µM [1] [%] | inhibition at 10 µM (SW480 colon cancer cells) [%]
O=C(Nc1cncc(-c2cc3c(-c4cc5c(-c6ccc(F)cc6)cccc5[nH]4)n[nH]c3cn2)c1)C1CCCCC1 [Compound 51, N-(5-(3-(4-(4-Fluorophenyl)-1H-indol-2-yl)-1H-pyrazolo[3,4-c]pyridin-5-yl)pyridin-3-yl)cyclohexanecarboxamide] | 9620 | > 10000 | > 10000 | 6.7 | 32.6 | –
c1cncc(-c2cc3c(-c4cc5c(-c6cccnc6)cccc5[nH]4)n[nH]c3cn2)c1 [Compound 88, 5-(Pyridin-3-yl)-3-(4-(pyridin-3-yl)-1H-indol-2-yl)-1H-pyrazolo[3,4-c]pyridine] | 1090 | 109 | 260 | – | – | –
CC(C)CC(=O)Nc1cncc(-c2cc3c(-c4cc5c(-c6ccc(F)cc6)cccc5[nH]4)n[nH]c3cn2)c1 [Compound 30, N-(5-(3-(4-(4-Fluorophenyl)-1H-indol-2-yl)-1H-pyrazolo[3,4-c]pyridin-5-yl)pyridin-3-yl)-3-methylbutanamide] | > 10000 | 5130 | 1540 | – | – | 28.3
CCC(=O)Nc1cncc(-c2cc3c(-c4cc5c(-c6cccnc6)cccc5[nH]4)n[nH]c3cn2)c1 [Compound 85, N-(5-(3-(4-(Pyridin-3-yl)-1H-indol-2-yl)-1H-pyrazolo[3,4-c]pyridin-5-yl)pyridin-3-yl)propionamide] | 1160 | 74 | 305 | – | – | –
Fc1ccc(-c2cccc3[nH]c(-c4n[nH]c5cnc(-c6cncc(CN7CCCC7)c6)cc45)cc23)cc1 [Compound 42, 3-(4-(4-Fluorophenyl)-1H-indol-2-yl)-5-(5-(pyrrolidin-1-ylmethyl)pyridin-3-yl)-1H-pyrazolo[3,4-c]pyridine] | 1080 | 3810 | 1840 | – | – | –
CCNCc1cncc(-c2cc3c(-c4cc5c(-c6ccc(F)cc6)cccc5[nH]4)n[nH]c3cn2)c1 [Compound 34, N-((5-(3-(4-(4-Fluorophenyl)-1H-indol-2-yl)-1H-pyrazolo[3,4-c]pyridin-5-yl)pyridin-3-yl)methyl)ethanamine] | 805 | 399 | 382 | – | – | –
CCCCC(=O)Nc1cncc(-c2cc3c(-c4cc5c(-c6ccccc6F)cccc5[nH]4)n[nH]c3cn2)c1 [Compound 75, N-(5-(3-(4-(2-Fluorophenyl)-1H-indol-2-yl)-1H-pyrazolo[3,4-c]pyridin-5-yl)pyridin-3-yl)pentanamide] | > 10000 | 3 | > 10000 | – | 11.1 | 10.7
c1cncc(-c2cccc3[nH]c(-c4n[nH]c5cnc(-c6cncc(CN7CCCC7)c6)cc45)cc23)c1 [Compound 98, 3-(4-(Pyridin-3-yl)-1H-indol-2-yl)-5-(5-(pyrrolidin-1-ylmethyl)pyridin-3-yl)-1H-pyrazolo[3,4-c]pyridine] | 7220 | 1520 | 1200 | – | – | –
O=C(Nc1cncc(-c2cc3c(-c4cc5c(-c6cccnc6)cccc5[nH]4)n[nH]c3cn2)c1)C1CC1 [Compound 104, N-(5-(3-(4-(Pyridin-3-yl)-1H-indol-2-yl)-1H-pyrazolo[3,4-c]pyridin-5-yl)pyridin-3-yl)cyclopropanecarboxamide] | 1470 | 226 | 336 | – | – | –

The next lines start with results.

EC50 (SW480 colon cancer cells) [nM] | EC50 (IL-6 (THP-1 cells)) [nM] | EC50 [1] [nM] | Structure (SMILES) | inhibition at 10 µM (IL-6 (THP-1 cells)) [%] | inhibition at 10 µM [1] [%] | inhibition at 10 µM (SW480 colon cancer cells) [%]
1920 | 549 | 255 | Nc1cncc(-c2cc3c(-c4cc5c(-c6ccccn6)cccc5[nH]4)n[nH]c3cn2)c1 [Compound 143, 5-(3-(4-(Pyridin-2-yl)-1H-indol-2-yl)-1H-pyrazolo[3,4-c]pyridin-5-yl) pyridin-3-amine] | – | – | –
2340 | 3490 | 2770 | c1cc(-c2ccoc2)c2cc(-c3n[nH]c4cnc(-c5cncc(CN6CCCCC6)c5)cc34)[nH]c2c1 [Compound 323, 3-(4-(Furan-3-yl)-1H-indol-2-yl)-5-(5-(piperidin-1-ylmethyl)pyridin-3-yl)-1H-pyrazolo[3,4-c]pyridine] | – | – | –
> 10000 | > 10000 | > 10000 | c1csc(-c2cccc3[nH]c(-c4n[nH]c5cnc(C6CCNCC6)cc45)cc23)c1 [Compound 725, 5-(Piperidin-4-yl)-3-(4-(thiophen-2-yl)-1H-indol-2-yl)-1H-pyrazolo[3,4-c]pyridine] | 45.4 | 25.9 | 8.1
2780 | 1460 | 2740 | CN(C)CCOc1cncc(-c2cc3c(-c4cc5c(-c6cccnc6)cccc5[nH]4)n[nH]c3cn2)c1 [Compound 591, N,N-Dimethyl-2-((5-(3-(4-(pyridin-3-yl)-1H-indol-2-yl)-1H-pyrazolo[3,4-c]pyridin-5-yl)pyridin-3-yl)oxy)ethan-1-amine] | – | – | –
1930 | 1180 | 195 | Cc1ccncc1-c1cc2c(-c3cc4c(-c5cc(F)cc(CNS(C)(=O)=O)c5)cccc4[nH]3)n[nH]c2cn1 [Compound 481, N-(3-Fluoro-5-(2-(5-(4-methylpyridin-3-yl)-1H-pyrazolo[3,4-c]pyridin-3-yl)-1H-indol-4-yl)benzyl)methanesulfonamide] | – | – | –
> 10000 | > 10000 | 203 | c1cc(-c2ccoc2)c2cc(-c3n[nH]c4cnc(-c5cn[nH]c5)cc34)[nH]c2c1 [Compound 711, 3-(4-(Furan-3-yl)-1H-indol-2-yl)-5-(1H-pyrazol-4-yl)-1H-pyrazolo[3,4-c]pyridine] | 0 | – | 45.1
> 10000 | 1650 | > 10000 | O=C(CC1CCNCC1)Nc1cncc(-c2cc3c(-c4cc5c(-c6ccccn6)cccc5[nH]4)n[nH]c3cn2)c1 [Compound 621, 2-(Piperidin-4-yl)-N-(5-(3-(4-(pyridin-2-yl)-1H-indol-2-yl)-1H-pyrazolo[3,4-c]pyridin-5-yl)pyridin-3-yl)acetamide] | – | 46.2 | 29.3
2860 | 1560 | 3750 | CN(C)CCNc1cc(F)cc(-c2cccc3[nH]c(-c4n[nH]c5cnc(-c6ccccn6)cc45)cc23)c1 [Compound 476, N^1-(3-Fluoro-5-(2-(5-(pyridin-2-yl)-1H-pyrazolo[3,4-c]pyridin-3-yl)-1H-indol-4-yl)phenyl)-N^2,N^2-dimethylethane-1,2-diamine] | – | – | –
2060 | 989 | 711 | CN(C)Cc1cncc(-c2cc3c(-c4cc5c(-c6ccccn6)cccc5[nH]4)n[nH]c3cn2)c1 [Compound 153, N,N-Dimethyl-1-(5-(3-(4-(pyridin-2-yl)-1H-indol-2-yl)-1H-pyrazolo[3,4-c]pyridin-5-yl)pyridin-3-yl)methanamine] | – | – | –
> 10000 | 44 | 27 | Cn1cc(-c2cc3c(-c4cc5c(-c6ccncc6)cccc5[nH]4)n[nH]c3cn2)cn1 [Compound 600, 5-(1-Methyl-1H-pyrazol-4-yl)-3-(4-(pyridin-4-yl)-1H-indol-2-yl)-1H-pyrazolo[3,4-c]pyridine] | – | – | 45.1
